Assay: recombinant UMI read abundance after kanamycin selection (control-corrected) (log10(CPM+1)); higher = more efficient recombination; extreme values may be limits of the assay; sequences stand for … in AGTGCAGAGAAAATCGGCCAGTTTTCTCTGCCTGCAGTCCGCATGCCGTGGGACCCCTTGGGTTCTAACCTGTTGCCTAGATTTATGCAGCGGACTGCCTTTCTCCCAAAGTGATAAACCGG…AGGTTGGTTTCACT; site = the 11-nt donor
In short: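 Values, expressed as log10(CPM+1), derive from recombinant UMI counts converted to CPM, averaged across replicates and scaled by control-derived factors. Plating was with IPTG (0.07 mM) plus kanamycin or unselected, two replicates each. The screen pooled donor and donor-binding-loop pairs for the IS621 bridge recombinase in Escherichia coli.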
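Also: IS621 bridge recombinase in Escherichia coli cells against a fixed T5 target plasmid.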

| Sequence | recombinant UMI read abundance (log10) |
| --- | --- |
| TAGCCTTCATGGACCGGTTTTCCCGGTAATCCGTATTTGCT (site TAGCCTTCTAA) | 0.0333 |
| TAGCCTTCATGGACCGGTTTTCCCGGTAATCCGTATTTGCT (site TAGCCTTCTAC) | 0.00853 |
| TAGCCTTCATGGACCGGTTTTCCCGGTAATCCGTATTTGCT (site TAGCCTTCTAG) | 0 |
| TAGCCTTCATGGACCGGTTTTCCCGGTAATCCGTATTTGCT (site TAGCCTTCTAT) | 0 |
| TAGCCTTCATGGACCGGTTTTCCCGGTAATCCGTATTTGGT (site AAGCCTTCTAC) | 0.00534 |
| TAGCCTTCATGGACCGGTTTTCCCGGTAATCCGTATTTGGT (site CAGCCTTCTAC) | 0.00723 |
| TAGCCTTCATGGACCGGTTTTCCCGGTAATCCGTATTTGGT (site GAGCCTTCTAC) | 0.0148 |
| TAGCCTTCATGGACCGGTTTTCCCGGTAATCCGTATTTGGT (site TAACCTTCTAC) | 0 |
| TAGCCTTCATGGACCGGTTTTCCCGGTAATCCGTATTTGGT (site TACCCTTCTAC) | 0.00592 |
| TAGCCTTCATGGACCGGTTTTCCCGGTAATCCGTATTTGGT (site TAGACTTCTAC) | 0 |
| TAGCCTTCATGGACCGGTTTTCCCGGTAATCCGTATTTGGT (site TAGCATTCTAC) | 0.0053 |
| TAGCCTTCATGGACCGGTTTTCCCGGTAATCCGTATTTGGT (site TAGCCATCTAC) | 0.00583 |
| TAGCCTTCATGGACCGGTTTTCCCGGTAATCCGTATTTGGT (site TAGCCCTCTAC) | 0.00791 |
| TAGCCTTCATGGACCGGTTTTCCCGGTAATCCGTATTTGGT (site TAGCCGTCTAC) | 0.0151 |
| TAGCCTTCATGGACCGGTTTTCCCGGTAATCCGTATTTGGT (site TAGCCTACTAC) | 0.0102 |
| TAGCCTTCATGGACCGGTTTTCCCGGTAATCCGTATTTGGT (site TAGCCTCCTAC) | 0.00585 |
| TAGCCTTCATGGACCGGTTTTCCCGGTAATCCGTATTTGGT (site TAGCCTGCTAC) | 0.0178 |
| TAGCCTTCATGGACCGGTTTTCCCGGTAATCCGTATTTGGT (site TAGCCTTCTAA) | 0.0101 |
| TAGCCTTCATGGACCGGTTTTCCCGGTAATCCGTATTTGGT (site TAGCCTTCTAC) | 0.00564 |
| TAGCCTTCATGGACCGGTTTTCCCGGTAATCCGTATTTGGT (site TAGCCTTCTAG) | 0 |
| TAGCCTTCATGGACCGGTTTTCCCGGTAATCCGTATTTGGT (site TAGCCTTCTAT) | 0.017 |
| TAGCCTTCATGGACCGGTTTTCCCGGTAATCCGTATTTGGT (site TAGCCTTCTCC) | 0.0356 |
| TAGCCTTCATGGACCGGTTTTCCCGGTAATCCGTATTTGGT (site TAGCCTTCTGC) | 0 |
| TAGCCTTCATGGACCGGTTTTCCCGGTAATCCGTATTTGGT (site TAGCCTTCTTC) | 0.0121 |
| TAGCCTTCATGGACCGGTTTTCCCGGTAATCCGTATTTGGT (site TAGCGTTCTAC) | 0 |

| Sequence | recombinant UMI read abundance (log10) |
| --- | --- |
| TAGCCTTCATGGACCGGTTTTCCCGGTAATCCGTATTTGGT (site TAGCTTTCTAC) | 0 |
| TAGCCTTCATGGACCGGTTTTCCCGGTAATCCGTATTTGGT (site TAGGCTTCTAC) | 0.0025 |
| TAGCCTTCATGGACCGGTTTTCCCGGTAATCCGTATTTGGT (site TAGTCTTCTAC) | 0 |
| TAGCCTTCATGGACCGGTTTTCCCGGTAATCCGTATTTGGT (site TATCCTTCTAC) | 0.379 |
| TAGCCTTCATGGACCGGTTTTCCCGGTAATCCGTATTTGGT (site TCGCCTTCTAC) | 0.0137 |
| TAGCCTTCATGGACCGGTTTTCCCGGTAATCCGTATTTGGT (site TGGCCTTCTAC) | 0 |
| TAGCCTTCATGGACCGGTTTTCCCGGTAATCCGTATTTGGT (site TTGCCTTCTAC) | 0.0116 |
| TAGCGAGCATGGACCGGTTTTCCCGGTAATCCGTATTTGTC (site TAGCGAGCTGA) | 2.41 |
| TAGCGCTCATGGACCGGTTTTCCCGGTAATCCGTATTTGCA (site TAGCGCTCTTG) | 2.33 |
| TAGCGTTCATGGACCGGTTTTCCCGGTAATCCGTATTTGGT (site TAGCATTCTAC) | 0.538 |
| TAGCGTTCATGGACCGGTTTTCCCGGTAATCCGTATTTGGT (site TAGCCTTCTAC) | 0.00546 |
| TAGCGTTCATGGACCGGTTTTCCCGGTAATCCGTATTTGGT (site TAGCGTTCTAC) | 1.12 |
| TAGCGTTCATGGACCGGTTTTCCCGGTAATCCGTATTTGGT (site TAGCTTTCTAC) | 0 |
| TAGCTAGCATGGACCGGTTTTCCCGGTAATCCGTATTTGAT (site TAGCTAGCTAT) | 1.59 |
| TAGCTAGCATGGACCGGTTTTCCCGGTAATCCGTATTTGAT (site TAGCTAGCTCT) | 0.0164 |
| TAGCTAGCATGGACCGGTTTTCCCGGTAATCCGTATTTGAT (site TAGCTAGCTGT) | 0 |
| TAGCTAGCATGGACCGGTTTTCCCGGTAATCCGTATTTGAT (site TAGCTAGCTTT) | 0.0212 |
| TAGCTAGCATGGACCGGTTTTCCCGGTAATCCGTATTTGCA (site TAGCTAGCTTA) | 0.178 |
| TAGCTAGCATGGACCGGTTTTCCCGGTAATCCGTATTTGCA (site TAGCTAGCTTC) | 0.00756 |
| TAGCTAGCATGGACCGGTTTTCCCGGTAATCCGTATTTGCA (site TAGCTAGCTTG) | 1.01 |
| TAGCTAGCATGGACCGGTTTTCCCGGTAATCCGTATTTGCA (site TAGCTAGCTTT) | 0.0133 |
| TAGCTAGCATGGACCGGTTTTCCCGGTAATCCGTATTTGTA (site TAGCTAGCTTA) | 1.62 |
| TAGCTAGCATGGACCGGTTTTCCCGGTAATCCGTATTTGTA (site TAGCTAGCTTC) | 0.0102 |
| TAGCTAGCATGGACCGGTTTTCCCGGTAATCCGTATTTGTA (site TAGCTAGCTTG) | 0.789 |
| TAGCTAGCATGGACCGGTTTTCCCGGTAATCCGTATTTGTA (site TAGCTAGCTTT) | 0.235 |

| Sequence | recombinant UMI read abundance (log10) |
| --- | --- |
| TAGCTCTCATGGACCGGTTTTCCCGGTAATCCGTATTTGGG (site TAGCTCTCTCC) | 0.00931 |
| TAGGAATCATGGACCGGTTTTCCCGGTAATCCGTATTTGAG (site TAGGAATCTCA) | 2.32 |
| TAGGAATCATGGACCGGTTTTCCCGGTAATCCGTATTTGAG (site TAGGAATCTCC) | 1.84 |
| TAGGAATCATGGACCGGTTTTCCCGGTAATCCGTATTTGAG (site TAGGAATCTCG) | 1.36 |
| TAGGAATCATGGACCGGTTTTCCCGGTAATCCGTATTTGAG (site TAGGAATCTCT) | 3.1 |
| TAGGAATCATGGACCGGTTTTCCCGGTAATCCGTATTTGCG (site AAGGAATCTCG) | 2.07 |
| TAGGAATCATGGACCGGTTTTCCCGGTAATCCGTATTTGCG (site CAGGAATCTCG) | 2.3 |
| TAGGAATCATGGACCGGTTTTCCCGGTAATCCGTATTTGCG (site GAGGAATCTCG) | 0 |
| TAGGAATCATGGACCGGTTTTCCCGGTAATCCGTATTTGCG (site TAAGAATCTCG) | 2.05 |
| TAGGAATCATGGACCGGTTTTCCCGGTAATCCGTATTTGCG (site TACGAATCTCG) | 1.28 |
| TAGGAATCATGGACCGGTTTTCCCGGTAATCCGTATTTGCG (site TAGAAATCTCG) | 2.39 |
| TAGGAATCATGGACCGGTTTTCCCGGTAATCCGTATTTGCG (site TAGCAATCTCG) | 1.05 |
| TAGGAATCATGGACCGGTTTTCCCGGTAATCCGTATTTGCG (site TAGGAAACTCG) | 1.27 |
| TAGGAATCATGGACCGGTTTTCCCGGTAATCCGTATTTGCG (site TAGGAACCTCG) | 0 |
| TAGGAATCATGGACCGGTTTTCCCGGTAATCCGTATTTGCG (site TAGGAAGCTCG) | 0.419 |
| TAGGAATCATGGACCGGTTTTCCCGGTAATCCGTATTTGCG (site TAGGAATCTAG) | 1.42 |
| TAGGAATCATGGACCGGTTTTCCCGGTAATCCGTATTTGCG (site TAGGAATCTCA) | 2.6 |
| TAGGAATCATGGACCGGTTTTCCCGGTAATCCGTATTTGCG (site TAGGAATCTCC) | 1.39 |
| TAGGAATCATGGACCGGTTTTCCCGGTAATCCGTATTTGCG (site TAGGAATCTCG) | 2.72 |
| TAGGAATCATGGACCGGTTTTCCCGGTAATCCGTATTTGCG (site TAGGAATCTCT) | 2.03 |
| TAGGAATCATGGACCGGTTTTCCCGGTAATCCGTATTTGCG (site TAGGAATCTGG) | 2.08 |
| TAGGAATCATGGACCGGTTTTCCCGGTAATCCGTATTTGCG (site TAGGAATCTTG) | 1.85 |
| TAGGAATCATGGACCGGTTTTCCCGGTAATCCGTATTTGCG (site TAGGACTCTCG) | 0.892 |
| TAGGAATCATGGACCGGTTTTCCCGGTAATCCGTATTTGCG (site TAGGAGTCTCG) | 1.94 |
| TAGGAATCATGGACCGGTTTTCCCGGTAATCCGTATTTGCG (site TAGGATTCTCG) | 1.39 |
